Read-outs that look alike come from different tables or passages of the source.
Experiments:
[1] = biological target: T1, human Cav3.2 T-type Ca2+ channel (Homo sapiens, UniProt O95180); assay: Inhibitory effect for intracellular calcium response via Cav3.2 T-type Ca2+ channels (FLIPR Calcium 3 Assay Kit); assay type: cell-based
T1 construct: expressed in transfected cells; host or cells: KJMGER8 cells (Namalwa cell-derived cell line)

[2] = tested on: morphine-induced pruritus mice; assay: Inhibitory effect for pruritus in morphine-induced pruritus mice; assay type: in vivo, male ddY mice; conditions: oral, dose of 30 mg/kg or less, 30 minutes before intrathecal morphine (1 nmol/5 μL); scratching counted for 30 minutes
Method: Morphine (1 nmol/5 μL, dissolved in physiological saline) or physiological saline was intrathecally administered between the fifth and sixth lumbar vertebrae of male ddY mice using a microsyringe fitted with a 30-gauge injection needle. Mice administered with only morphine were used as a control group, and mice administered with only physiological saline as a physiological saline-administered group.
After the morphine administration, the number of scratching behavior with the hind legs which observed immediately in the mice was measured for 30 minutes. Because mice show a rapid, continuous scratching behavior in each scratching behavior, a series of such behavior was counted as a single scratching behavior.
The test compounds were administered 30 minutes before the morphine administration. Each test compound was suspended in a 0.5% methylcellulose solution, and orally administered in 10 mL/kg volume.

[3] = human Cav3.2-expressing KJMGER8 cells (Namalwa-derived), calcium response induced by 5 mmol/L CaCl2, normalised to 3 μmol/L mibefradil, read-out: IC50 for the human Cav3.2 T-type Ca2+ current

T1 sequence (O95180 whole entry): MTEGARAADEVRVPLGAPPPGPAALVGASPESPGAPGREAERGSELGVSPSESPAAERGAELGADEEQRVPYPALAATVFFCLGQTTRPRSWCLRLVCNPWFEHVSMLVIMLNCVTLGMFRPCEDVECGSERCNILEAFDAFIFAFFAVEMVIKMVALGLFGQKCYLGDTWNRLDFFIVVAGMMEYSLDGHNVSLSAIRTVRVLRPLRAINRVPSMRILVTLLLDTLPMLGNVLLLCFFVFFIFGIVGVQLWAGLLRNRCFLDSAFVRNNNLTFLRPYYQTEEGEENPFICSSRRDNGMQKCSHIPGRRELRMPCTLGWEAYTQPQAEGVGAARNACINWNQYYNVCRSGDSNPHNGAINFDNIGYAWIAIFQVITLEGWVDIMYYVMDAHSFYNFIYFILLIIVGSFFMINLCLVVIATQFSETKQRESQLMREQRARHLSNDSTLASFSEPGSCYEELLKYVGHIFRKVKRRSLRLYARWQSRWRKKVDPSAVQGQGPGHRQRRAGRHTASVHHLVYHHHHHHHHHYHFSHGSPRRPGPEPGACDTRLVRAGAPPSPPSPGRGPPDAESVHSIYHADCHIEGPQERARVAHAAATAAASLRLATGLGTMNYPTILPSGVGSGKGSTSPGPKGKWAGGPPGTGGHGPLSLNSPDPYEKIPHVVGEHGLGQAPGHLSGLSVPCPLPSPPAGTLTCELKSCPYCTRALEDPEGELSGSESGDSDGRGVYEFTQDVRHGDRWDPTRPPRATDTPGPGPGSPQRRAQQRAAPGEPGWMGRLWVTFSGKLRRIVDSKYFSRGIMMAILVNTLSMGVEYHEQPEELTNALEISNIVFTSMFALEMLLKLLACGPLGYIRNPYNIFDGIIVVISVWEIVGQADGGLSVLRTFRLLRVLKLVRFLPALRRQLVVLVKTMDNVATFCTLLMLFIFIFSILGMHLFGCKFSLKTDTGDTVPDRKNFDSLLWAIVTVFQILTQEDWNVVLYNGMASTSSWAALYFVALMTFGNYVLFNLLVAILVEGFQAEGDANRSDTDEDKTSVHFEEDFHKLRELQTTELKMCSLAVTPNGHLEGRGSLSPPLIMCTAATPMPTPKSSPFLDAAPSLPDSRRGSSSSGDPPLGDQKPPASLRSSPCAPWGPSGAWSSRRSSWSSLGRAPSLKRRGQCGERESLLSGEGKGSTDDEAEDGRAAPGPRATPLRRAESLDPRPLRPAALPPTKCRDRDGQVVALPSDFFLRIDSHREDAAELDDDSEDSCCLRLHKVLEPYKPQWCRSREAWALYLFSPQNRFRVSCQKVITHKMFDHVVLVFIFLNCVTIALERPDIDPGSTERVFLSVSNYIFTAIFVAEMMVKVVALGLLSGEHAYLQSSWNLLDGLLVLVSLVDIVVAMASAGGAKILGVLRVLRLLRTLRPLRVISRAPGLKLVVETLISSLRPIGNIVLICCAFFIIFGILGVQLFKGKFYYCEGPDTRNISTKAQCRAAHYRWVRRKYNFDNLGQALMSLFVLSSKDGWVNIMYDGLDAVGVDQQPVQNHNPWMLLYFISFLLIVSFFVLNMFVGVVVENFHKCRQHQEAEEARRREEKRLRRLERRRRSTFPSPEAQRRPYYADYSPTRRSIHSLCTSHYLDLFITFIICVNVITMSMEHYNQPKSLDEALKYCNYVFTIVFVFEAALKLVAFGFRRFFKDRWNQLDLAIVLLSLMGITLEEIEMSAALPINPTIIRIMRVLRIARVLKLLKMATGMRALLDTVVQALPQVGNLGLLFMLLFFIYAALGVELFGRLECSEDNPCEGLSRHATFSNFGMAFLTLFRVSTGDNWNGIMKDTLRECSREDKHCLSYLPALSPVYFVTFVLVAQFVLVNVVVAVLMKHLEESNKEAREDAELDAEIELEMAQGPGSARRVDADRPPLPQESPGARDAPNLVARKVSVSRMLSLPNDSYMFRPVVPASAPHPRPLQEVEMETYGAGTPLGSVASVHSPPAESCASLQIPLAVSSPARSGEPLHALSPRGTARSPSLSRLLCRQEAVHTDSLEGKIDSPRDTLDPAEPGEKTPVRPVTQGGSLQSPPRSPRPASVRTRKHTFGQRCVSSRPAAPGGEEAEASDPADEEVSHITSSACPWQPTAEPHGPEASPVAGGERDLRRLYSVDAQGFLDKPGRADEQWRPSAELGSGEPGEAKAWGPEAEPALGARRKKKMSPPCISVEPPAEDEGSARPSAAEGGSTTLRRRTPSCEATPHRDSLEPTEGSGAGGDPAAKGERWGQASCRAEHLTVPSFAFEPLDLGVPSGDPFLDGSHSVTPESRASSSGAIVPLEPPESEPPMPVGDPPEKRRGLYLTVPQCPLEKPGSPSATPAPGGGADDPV

SMILES | IC50 [1] | increase of the scratching behavior observed in the morphine-induced pruritus mice [2] | IC50 [1, 3]
CC1CCCN(C(=O)c2ccn3c(CC4CCCCC4)c(C(C)(C)C)nc3c2)C1 (centres unmarked) [Compound 14, (2-tert-Butyl-3-cyclohexylmethylimidazo[1,2-a]pyridin-7-yl)(3-methylpiperidin-1-yl)methanone] | < 100 nM | inhibited | –
CC(C)(C)c1nc2cc(C(=O)NC3CCC3)ccn2c1CC1CCCCC1 [Compound 15, 2-tert-Butyl-N-cyclobutyl-3-cyclohexylmethylimidazo[1,2-a]pyridine-7-carboxamide] | < 100 nM | inhibited | –
CC(C)c1nc2cc(C(=O)Nc3ccccc3)ccn2c1COC1CCCCC1 [Compound 21, 3-Cyclohexyloxymethyl-2-isopropyl-N-phenylimidazo[1,2-a]pyridine-7-carboxamide] | – | inhibited | < 100 nM
CC(C)c1nc2cc(C(=O)Nc3ccncc3)ccn2c1COC1CCCCC1 [Compound 24, 3-Cyclohexyloxymethyl-2-isopropyl-N-(pyridin-4-yl)imidazo[1,2-a]pyridine-7-carboxamide] | – | inhibited | < 100 nM
CC(C)(C)c1nc2cc(C(=O)Nc3ccncc3)ccn2c1CC1CCC(F)(F)CC1 [Compound 34, 2-tert-Butyl-3-(4,4-difluorocyclohexylmethyl)-N-(pyridin-4-yl)imidazo[1,2-a]pyridine-7-carboxamide] | < 100 nM | inhibited | –
O=C(Nc1ccncc1)c1ccn2c(CC3CCCCC3)c(C(F)(F)F)nc2c1 [Compound 35, 3-Cyclohexylmethyl-N-(pyridin-4-yl)-2-trifluoromethylimidazo[1,2-a]pyridine-7-carboxamide] | < 100 nM | inhibited | –
O=C(Nc1ccncc1)c1ccn2c(CC3CCC(F)(F)CC3)c(C(F)(F)F)nc2c1 [Compound 36, 3-(4,4-Difluorocyclohexylmethyl)-N-(pyridin-4-yl)-2-trifluoromethylimidazo[1,2-a]pyridine-7-carboxamide] | – | inhibited | –
CC(C)c1nc2cc(C(=O)Nc3ccncc3)ccn2c1S(=O)(=O)C1CCCCC1 [Compound 38, 3-Cyclohexylsulfonyl-2-isopropyl-N-(pyridin-4-yl)imidazo[1,2-a]pyridine-7-carboxamide] | < 100 nM | inhibited | –
CC(C)c1nc2cc(C(=O)Nc3ccccc3)ccn2c1S(=O)(=O)C1CCCCC1 [Compound 41, 3-Cyclohexylsulfonyl-2-isopropyl-N-phenylimidazo[1,2-a]pyridine-7-carboxamide] | < 100 nM | inhibited | –
Cc1cn2c(COC3CCCCC3)c(C(C)C)nc2cc1C(=O)Nc1ccncc1 [Compound 43, 3-Cyclohexyloxymethyl-2-isopropyl-6-methyl-N-(pyridin-4-yl)imidazo[1,2-a]pyridine-7-carboxamide] | < 100 nM | inhibited | –
Cc1cc(C(=O)NC2CCOCC2)cc2nc(C(F)(F)F)c(CC3CCC(F)(F)CC3)n12 [Compound 44, 3-(4,4-Difluorocyclohexylmethyl)-5-methyl-N-(tetrahydro-2H-pyran-4-yl)-2-trifluoromethylimidazo[1,2-a]pyridine-7-carboxamide] | – | inhibited | –
O=C(NC1CCC1)c1ccn2c(CC3CCC(F)(F)CC3)c(C(F)(F)F)nc2c1 [Compound 50, N-Cyclobutyl-3-(4,4-difluorocyclohexylmethyl)-2-trifluoromethylimidazo[1,2-a]pyridine-7-carboxamide] | < 100 nM | inhibited | –
O=C(NC1CC(F)(F)C1)c1ccn2c(CC3CCC(F)(F)CC3)c(C(F)(F)F)nc2c1 [Compound 51, N-(3,3-Difluorocyclobutyl)-3-(4,4-difluorocyclohexylmethyl)-2-trifluoromethylimidazo[1,2-a]pyridine-7-carboxamide] | < 100 nM | inhibited | –
CC1(NC(=O)c2ccn3c(CC4CCC(F)(F)CC4)c(C(F)(F)F)nc3c2)CCOCC1 [Compound 52, 3-(4,4-Difluorocyclohexylmethyl)-N-(4-methyltetrahydro-2H-pyran-4-yl)-2-trifluoromethylimidazo[1,2-a]pyridine-7-carboxamide] | < 100 nM | inhibited | –
CC1(C)CC(NC(=O)c2ccn3c(CC4CCC(F)(F)CC4)c(C(F)(F)F)nc3c2)CCO1 (centres unmarked) [Compound 54, 3-(4,4-Difluorocyclohexylmethyl)-N-(2,2-dimethyltetrahydro-2H-pyran-4-yl)-2-trifluoromethylimidazo[1,2-a]pyridine-7-carboxamide] | – | inhibited | –
Cc1cc(C(=O)NC2CCC(O)CC2)cc2nc(C(F)(F)F)c(CC3CCC(F)(F)CC3)n12 (centres unmarked) [Compound 70, 3-(4,4-Difluorocyclohexylmethyl)-N-(4-hydroxycyclohexyl)-5-methyl-2-trifluoromethylimidazo[1,2-a]pyridine-7-carboxamide] | < 100 nM | inhibited | –
Cc1cc(C(=O)NC2CCC(F)(F)CC2)cc2nc(C(F)(F)F)c(CC3CCC(F)(F)CC3)n12 [Compound 72, N-(4,4-Difluorocyclohexyl)-3-(4,4-difluorocyclohexylmethyl)-5-methyl-2-trifluoromethylimidazo[1,2-a]pyridine-7-carboxamide] | < 100 nM | inhibited | –
Cc1cc(C(=O)NC2CCOC2)cc2nc(C(F)(F)F)c(CC3CCC(F)(F)CC3)n12 (centres unmarked) [Compound 73, 3-(4,4-Difluorocyclohexylmethyl)-5-methyl-N-(tetrahydrofuran-3-yl)-2-trifluoromethylimidazo[1,2-a]pyridine-7-carboxamide] | < 100 nM | inhibited | –
Cc1cc(C(=O)NC2CCOC(C)(C)C2)cc2nc(C(F)(F)F)c(CC3CCC(F)(F)CC3)n12 (centres unmarked) [Compound 75, 3-(4,4-Difluorocyclohexylmethyl)-N-(2,2-dimethyltetrahydro-2H-pyran-4-yl)-5-methyl-2-trifluoromethylimidazo[1,2-a]pyridine-7-carboxamide] | – | inhibited | < 100 nM
Cc1cc(C(=O)NC2CCCOC2)cc2nc(C(F)(F)F)c(CC3CCC(F)(F)CC3)n12 (centres unmarked) [Compound 76, 3-(4,4-Difluorocyclohexylmethyl)-5-methyl-N-(tetrahydro-2H-pyran-3-yl)-2-trifluoromethylimidazo[1,2-a]pyridine-7-carboxamide] | – | inhibited | < 100 nM
Cc1cc(C(=O)NCC(C)(C)O)cc2nc(C(F)(F)F)c(CC3CCC(F)(F)CC3)n12 [Compound 78, 3-(4,4-Difluorocyclohexylmethyl)-N-(2-hydroxy-2-methylpropyl)-5-methyl-2-trifluoromethylimidazo[1,2-a]pyridine-7-carboxamide] | < 100 nM | inhibited | –
COC(C)(C)CNC(=O)c1cc(C)n2c(CC3CCC(F)(F)CC3)c(C(F)(F)F)nc2c1 [Compound 79, 3-(4,4-Difluorocyclohexylmethyl)-N-(2-methoxy-2-methylpropyl)-5-methyl-2-trifluoromethylimidazo[1,2-a]pyridine-7-carboxamide] | < 100 nM | inhibited | –
Cc1cc(C(=O)NCC2CCOC2)cc2nc(C(F)(F)F)c(CC3CCC(F)(F)CC3)n12 (centres unmarked) [Compound 80, 3-(4,4-Difluorocyclohexylmethyl)-N-{(tetrahydrofuran-3-yl)methyl}-5-methyl-2-trifluoromethylimidazo[1,2-a]pyridine-7-carboxamide] | < 100 nM | inhibited | –
Cc1cn2c(CC3CCC(F)(F)CC3)c(C(F)(F)F)nc2cc1C(=O)NC1CCOCC1 [Compound 118, 3-(4,4-Difluorocyclohexylmethyl)-6-methyl-N-(tetrahydro-2H-pyran-4-yl)-2-trifluoromethylimidazo[1,2-a]pyridine-7-carboxamide] | – | inhibited | –
C#CC(C)(C)NS(=O)(=O)c1c(C(C)C)nc2cc(C(=O)Nc3ccccc3)c(Cl)cn12 [Compound 179, 6-Chloro-2-isopropyl-3-{N-(2-methylbut-3-yne-2-yl)sulfamoyl}-N-phenylimidazo[1,2-a]pyridine-7-carboxamide] | – | – | < 100 nM
O=C(NC1CC=CCC1)c1ccn2c(CC3CCC(F)(F)CC3)c(C(F)(F)F)nc2c1 (centres unmarked) [Compound 180, N-(Cyclohex-3-enyl)-3-(4,4-difluorocyclohexylmethyl)-2-trifluoromethylimidazo[1,2-a]pyridine-7-carboxamide] | < 100 nM | – | –
O=C(NOC1CCOCC1)c1cc2nc(C(F)(F)F)c(CC3CCC(F)(F)CC3)n2cc1Cl [Compound 181, 6-Chloro-3-(4,4-difluorocyclohexylmethyl)-N-(tetrahydro-2H-pyran-4-yloxy)-2-trifluoromethylimidazo[1,2-a]pyridine-7-carboxamide] | – | – | < 100 nM
